From patent publication US11479539B2, “Small molecule modulators of the BTB domain of Keap1” (MedImmune Limited, priority 2017, dated 2022)
pEC50: −log10 of the molar value.

Molecular target: Keap1 (Homo sapiens (Human), UniProt Q14145)
Test: HEK293 ARE luciferase assay
Format: cell-based
Conditions: HEK-293 ARE firefly luciferase transiently transfected cells; 18 h incubation; mean of 1 to 20 individual measurements
Method in brief: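 Keap1 inhibition read as Nrf2-driven luciferase rise: compounds dosed in 10 points up to 100 μM (0.3% DMSO) on HEK-293 ARE luciferase cells, 10,000/well, 18 h at 37 °C, then SteadyGlo luminescence. Scaled between DMSO vehicle and 30 μM tBHQ; values average 1-20 runs.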

Sequence of Keap1 (Q14145 whole entry): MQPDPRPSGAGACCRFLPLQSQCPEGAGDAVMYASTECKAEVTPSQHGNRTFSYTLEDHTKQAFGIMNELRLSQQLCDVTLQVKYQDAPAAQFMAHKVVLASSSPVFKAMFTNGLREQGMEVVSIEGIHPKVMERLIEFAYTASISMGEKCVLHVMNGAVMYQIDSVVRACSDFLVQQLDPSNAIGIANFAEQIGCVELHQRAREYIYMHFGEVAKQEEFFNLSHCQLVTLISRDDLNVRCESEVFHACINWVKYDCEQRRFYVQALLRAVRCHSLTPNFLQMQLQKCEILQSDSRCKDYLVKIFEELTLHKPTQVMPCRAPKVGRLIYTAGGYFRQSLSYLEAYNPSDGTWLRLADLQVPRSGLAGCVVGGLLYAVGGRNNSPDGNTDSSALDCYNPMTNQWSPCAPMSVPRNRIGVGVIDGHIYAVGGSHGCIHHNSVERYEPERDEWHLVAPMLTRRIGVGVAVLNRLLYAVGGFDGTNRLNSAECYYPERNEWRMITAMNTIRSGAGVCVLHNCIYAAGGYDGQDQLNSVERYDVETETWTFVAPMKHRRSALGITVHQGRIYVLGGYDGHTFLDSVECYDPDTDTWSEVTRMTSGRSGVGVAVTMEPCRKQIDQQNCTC

| SMILES | pEC50 |
| --- | --- |
| COC1(c2ncc(F)cc2-c2cncc(C(=O)N(C)C)c2)C=C(C#N)C(=O)C(C)(C)C1 (single isomer, unassigned) [Compound 227, 2′-(3-cyano-1-methoxy-5,5-dimethyl-4-oxocyclohex-2-en-1-yl)-5′-fluoro-N,N-dimethyl[3,3′-bipyridine]-5-carboxamide] | 7.82 |
| COC1(c2cc(C(F)(F)F)ccn2)C=C(C#N)C(=O)C(C)(C)C1 (stereo not drawn) [Compound 1, 3-methoxy-5,5-dimethyl-6-oxo-3-[4-(trifluoromethyl)-2-pyridyl]cyclohexene-1-carbonitrile] | 6.39 |
| COC1(c2ncc(F)cc2-c2cc(C)nc(C)c2)C=C(C#N)C(=O)C(C)(C)C1 (single isomer, unassigned) [Compound 77, 3-[3-(2,6-dimethyl-4-pyridyl)-5-fluoro-2-pyridyl]-3-methoxy-5,5-dimethyl-6-oxo-cyclohexene-1-carbonitrile] | 8.40 |
| COC1(c2ncc(F)cc2-c2cncc(F)c2)C=C(C#N)C(=O)C(C)(C)C1 (single isomer, unassigned) [Compound 84, 3-[5-fluoro-3-(5-fluoro-3-pyridyl)-2-pyridyl]-3-methoxy-5,5-dimethyl-6-oxo-cyclohexene-1-carbonitrile] | 8.22 |
| COC1(c2ncc(F)cc2-c2ccnc(S(=O)(=O)N(C)C)c2)C=C(C#N)C(=O)C(C)(C)C1 (single isomer, unassigned) [Compound 207, 2-[3-cyano-1-methoxy-5,5-dimethyl-4-oxocyclohex-2-en-1-yl]-5-fluoro-N,N-dimethyl[3,4′-bipyridine]-2′-sulfonamide] | 7.32 |
| COC1(c2nc(C)c(-c3ccccn3)s2)C=C(C#N)C(=O)C2(CC2)C1 (single isomer, unassigned) [Compound 102, 7-methoxy-7-[4-methyl-5-(pyridin-2-yl)-1,3-thiazol-2-yl]-4-oxospiro[2.5]oct-5-ene-5-carbonitrile] | 7.14 |
| COC1(c2ncc(F)cc2-c2cnc3c(c2)OCCN3C)C=C(C#N)C(=O)C(C)(C)C1 (single isomer, unassigned) [Compound 205, 3-[5-fluoro-3-(4-methyl-3,4-dihydro-2H-pyrido[3,2-b][1,4]oxazin-7-yl)pyridin-2-yl]-3-methoxy-5,5-dimethyl-6-oxocyclohex-1-ene-1-carbonitrile] | 7.28 |
| COC1(c2ncccc2C(F)(F)F)C=C(C#N)C(=O)C2(CC2)C1 (single isomer, unassigned) [Compound 57, 7-methoxy-4-oxo-7-[3-(trifluoromethyl)pyridin-2-yl]spiro[2.5]oct-5-ene-5-carbonitrile] | 7.33 |
| COC1(c2ncc(F)cc2-c2c(C)nn(C)c2C)C=C(C#N)C(=O)C(C)(C)C1 (stereo not drawn) [Compound 189, 3-[5-fluoro-3-(1,3,5-trimethyl-1H-pyrazol-4-yl)pyridin-2-yl]-3-methoxy-5,5-dimethyl-6-oxocyclohex-1-ene-1-carbonitrile] | 5.82 |
| COC1(c2ccc(C)nc2C)C=C(C#N)C(=O)C(C)(C)C1 (stereo not drawn) [Compound 29, 3-(2,6-dimethylpyridin-3-yl)-3-methoxy-5,5-dimethyl-6-oxocyclohex-1-enecarbonitrile] | 7.04 |
| CCCc1cccnc1C1(OC)C=C(C#N)C(=O)C(C)(C)C1 (single isomer, unassigned) [Compound 101, 3-methoxy-5,5-dimethyl-6-oxo-3-(3-propylpyridin-2-yl)cyclohex-1-ene-1-carbonitrile] | 7.48 |
| COC1(c2ncc(F)cc2-c2cc(C)nc(C)c2)C=C(C#N)C(=O)C(C)(C)C1 (stereo not drawn) [Compound 173, 3-(5-fluoro-2′,6′-dimethyl[3,4′-bipyridin]-2-yl)-3-methoxy-5,5-dimethyl-6-oxocyclohex-1-ene-1-carbonitrile] | 7.82 |
| CCCc1cccnc1C1(OC)C=C(C#N)C(=O)C(C)(C)C1 (stereo not drawn) [Compound 169, 3-methoxy-5,5-dimethyl-6-oxo-3-(3-propylpyridin-2-yl)cyclohex-1-ene-1-carbonitrile] | 6.76 |
| COC1(c2ncc(F)cc2-c2ccn3ncnc3c2)C=C(C#N)C(=O)C(C)(C)C1 (stereo not drawn) [Compound 188, 3-[5-fluoro-3-([1,2,4]triazolo[1,5-a]pyridin-7-yl)pyridin-2-yl]-3-methoxy-5,5-dimethyl-6-oxocyclohex-1-ene-1-carbonitrile] | 7.64 |
| COC1(c2ncc(Cl)cc2C(F)F)C=C(C#N)C(=O)C2(CC2)C1 (single isomer, unassigned) [Compound 238, 7-[5-chloro-3-(difluoromethyl)pyridin-2-yl]-7-methoxy-4-oxospiro[2.5]oct-5-ene-5-carbonitrile] | 7.36 |
| COC1(c2ncc(F)cc2-c2cncc(C(F)(F)F)c2)C=C(C#N)C(=O)C(C)(C)C1 (single isomer, unassigned) [Compound 87, 3-[5-fluoro-3-[5-(trifluoromethyl)-3-pyridyl]-2-pyridyl]-3-methoxy-5,5-dimethyl-6-oxo-cyclohexene-1-carbonitrile] | 7.77 |
| COC1(c2nccc3ccccc23)C=C(C#N)C(=O)C(C)(C)C1 (stereo not drawn) [Compound 4, 3-(1-isoquinolyl)-3-methoxy-5,5-dimethyl-6-oxo-cyclohexene-1-carbonitrile] | 5.94 |
| C/C=C/c1cc(F)cnc1C1(OC)C=C(C#N)C(=O)C(C)(C)C1 (stereo not drawn) [Compound 176, 3-{5-fluoro-3-[(1E)-prop-1-en-1-yl]pyridin-2-yl}-3-methoxy-5,5-dimethyl-6-oxocyclohex-1-ene-1-carbonitrile] | 7.72 |
| COC1(c2ncc(F)cc2-c2cccn(C)c2=O)C=C(C#N)C(=O)C(C)(C)C1 (single isomer, unassigned) [Compound 75, 3-[5-fluoro-3-(1-methyl-2-oxo-3-pyridyl)-2-pyridyl]-3-methoxy-5,5-dimethyl-6-oxo-cyclohexene-1-carbonitrile] | 7.44 |
| COC1(c2ncccc2Br)C=C(C#N)C(=O)C(C)(C)C1 (stereo not drawn) [Compound 22, 3-(3-bromo-2-pyridyl)-3-methoxy-5,5-dimethyl-6-oxo-cyclohexene-1-carbonitrile] | 7.35 |
| COC1(c2ncc(F)cc2Cl)C=C(C#N)C(=O)C(C)(C)C1 (single isomer, unassigned) [Compound 224, 3-(3-chloro-5-fluoropyridin-2-yl)-3-methoxy-5,5-dimethyl-6-oxocyclohex-1-ene-1-carbonitrile] | 7.85 |
| COC1(c2cccc(-c3c(C)noc3C)n2)C=C(C#N)C(=O)C2(CC2)C1 (single isomer, unassigned) [Compound 52, 7-(6-(3,5-dimethylisoxazol-4-yl)pyridin-2-yl)-7-methoxy-4-oxospiro[2.5]oct-5-ene-5-carbonitrile] | 7.13 |
| COC1(c2ncc(F)cc2-c2cncc(Cl)c2)C=C(C#N)C(=O)C(C)(C)C1 (single isomer, unassigned) [Compound 88, 3-[3-(5-chloro-3-pyridyl)-5-fluoro-2-pyridyl]-3-methoxy-5,5-dimethyl-6-oxo-cyclohexene-1-carbonitrile] | 8.05 |
| COC1(c2ncc(F)cc2C)C=C(C#N)C(=O)C(C)(C)C1 (single isomer, unassigned) [Compound 31, 3-(5-fluoro-3-methylpyridin-2-yl)-3-methoxy-5,5-dimethyl-6-oxocyclohex-1-enecarbonitrile] | 7.72 |
